{
  "source": "paper PMC11684019",
  "about": "“Unveiling the Antimycobacterial Potential of Novel 4-Alkoxyquinolines: Insights into Selectivity, Mechanism of Action, and In Vivo Exposure” (Journal of Medicinal Chemistry, 2024)",
  "key": {"[1]": {"tested_on": "M. tuberculosis strain PT12 (MDR clinical isolate)", "format": "cell-based, Mycobacterium tuberculosis"}, "[2]": {"tested_on": "Vero cells", "conditions": "read-out: CC50 Vero; Neutral Red method, 72 h"}, "[3]": {"tested_on": "Klebsiella pneumoniae multidrug-resistant clinical isolate", "format": "cell-based", "conditions": "tested at 20 μM, 24 h"}, "[4]": {"conditions": "10 μM, pH 7.4, 5 h, 25 °C"}, "[5]": {"tested_on": "M. tuberculosis strain PT2 (MDR clinical isolate)", "format": "cell-based, Mycobacterium tuberculosis"}, "[6]": {"conditions": "mice; for Plasma concentration: 300 mg/kg single dose gavage"}, "[7]": {"tested_on": "Acinetobacter baumannii multidrug-resistant clinical isolate", "format": "cell-based", "conditions": "tested at 20 μM, 24 h"}, "[8]": {"assay": "Aqueous solubility (UHPLC-DAD)", "conditions": "25 °C, 4 h"}, "[9]": {"tested_on": "Vero cells", "conditions": "read-out: CC50 Vero; MTT method, 72 h"}, "[10]": {"tested_on": "Staphylococcus aureus ATCC 25923", "format": "cell-based", "conditions": "ATCC 25923, tested at 20 μM, 24 h"}, "[11]": {"tested_on": "HepG2 cells", "conditions": "read-out: CC50 HepG2; MTT method, 72 h"}, "[12]": {"conditions": "rat liver microsomes, 2 μM, NADPH, 37 °C"}, "[13]": {"tested_on": "M. tuberculosis H37Rv strain", "assay": "microbe, parasite or virus in culture", "format": "cell-based, Mycobacterium tuberculosis", "conditions": "M. tuberculosis H37Rv, resazurin-based assay"}, "[14]": {"conditions": "24 h, 10 μM", "description": "The assessment of chemical stability at different pH levels provides insights into the quantity or concentration of the test compound that remains unchanged and, consequently, available for absorption. […] Following this incubation period, the test compounds were quantified using HPLC-MS/MS, with alprenolol serving as the analytical control. This experiment was conducted by CEMSA (São Paulo, SP, Brazil)."}, "[15]": {"tested_on": "HepG2 cells", "conditions": "read-out: CC50 HepG2; Neutral Red method, 72 h"}, "[16]": {"tested_on": "M. tuberculosis H37Rv strain in murine macrophage RAW 264.7 cells", "format": "cell-based, Mycobacterium tuberculosis", "conditions": "for Reduction of Mtb load compared to the untreated group: 5 days"}, "[17]": {"tested_on": "Escherichia coli ATCC 25922", "format": "cell-based", "conditions": "ATCC 25922, tested at 20 μM, 24 h"}, "[18]": {"tested_on": "M. tuberculosis strain PT20 (MDR clinical isolate)", "format": "cell-based, Mycobacterium tuberculosis"}},
  "note": "“And” between values parts separate entries of the source, which are not always exact repeats. Identical values can stand only once. Like-named read-outs stand apart in the source and are kept apart here. Marks after values point to notes of the source that are not given here.",
  "data": [
    {"smiles": "CCc1ccc(NCCCOc2cc(C)nc3ccc(Br)cc23)cc1", "note": "[8t, N-(3-((6-bromo-2-methylquinolin-4-yl)oxy)propyl)-4-ethylaniline]", "values": [
      {"measurement": "MIC PT12", "setting": "[1]", "value": "<0.05", "unit": "µM"},
      {"measurement": "CC50", "setting": "[2]", "value": 11.8, "unit": "µM"},
      {"measurement": "MIC K. pneumoniae", "setting": "[3]", "value": "MIC K. pneumoniae = > 20 μM"},
      {"measurement": "PAMPA permeability", "setting": "[4]", "value": "PAMPA = 0.2 × 10^−6 cm/s"},
      {"measurement": "MIC PT2", "setting": "[5]", "value": "<0.05", "unit": "µM"},
      {"measurement": "Ke (elimination rate constant)", "setting": "[6]; 300 mg/kg gavage", "value": 0.16, "unit": "h^–1"},
      {"measurement": "Plasma concentrations for a span of up to 8 h", "setting": "[6]; 300 mg/kg gavage", "value": "exceeding 7.49 μM"},
      {"measurement": "Tmax", "setting": "[6]; 300 mg/kg gavage", "value": 1, "unit": "h"},
      {"measurement": "t1/2 (elimination half-life)", "setting": "[6]; 300 mg/kg gavage", "value": "4.3 ± 1.2", "unit": "h"},
      {"measurement": "Cmax", "setting": "[6]; 300 mg/kg gavage, noncompartmental analysis", "value": "32.1 ± 3.9", "unit": "µM"},
      {"measurement": "AUC0-t", "setting": "[6]; 300 mg/kg gavage, time 0 to 8 h", "value": "127.5 ± 5.7", "unit": "µM·h"},
      {"measurement": "Plasma concentration", "setting": "[6]; 0.5 h", "value": "11.10 ± 1.24", "unit": "µM"},
      {"measurement": "Plasma concentration", "setting": "[6]; 0.75 h", "value": "15.73 ± 1.61", "unit": "µM"},
      {"measurement": "Plasma concentration", "setting": "[6]; 1 h", "value": "32.15 ± 3.94", "unit": "µM"},
      {"measurement": "Plasma concentration", "setting": "[6]; 4 h", "value": "13.45 ± 2.01", "unit": "µM"},
      {"measurement": "Plasma concentration", "setting": "[6]; 8 h, 300 mg/kg", "value": "9.80 µM and 9.80 ± 2.13 µM"},
      {"measurement": "MIC A. baumannii", "setting": "[7]", "value": "MIC A. baumannii = > 20 μM"},
      {"measurement": "Solubility pH 1.2", "setting": "[8]; 0.1 M HCl solution", "value": ">2,500 μM"},
      {"measurement": "Solubility pH 9.1", "setting": "[8]; 0.1 M NH4HCO3 solution", "value": 30.22, "unit": "μM"},
      {"measurement": "Solubility pH 7.4", "setting": "[8]; PBS", "value": 35.3, "unit": "μM"},
      {"measurement": "CC50", "setting": "[9]", "value": "> 20", "unit": "µM"},
      {"measurement": "MIC S. aureus", "setting": "[10]", "value": "MIC S. aureus = > 20 μM"},
      {"measurement": "CC50", "setting": "[11]", "value": "> 20", "unit": "µM"},
      {"measurement": "Clint (intrinsic clearance)", "setting": "[12]", "value": "Clint ^f = 58 mL/min/kg"},
      {"measurement": "t1/2 (half-life)", "setting": "[12]", "value": "t1/2 ^g = 7.0 min"},
      {"measurement": "MIC", "setting": "[13]", "value": 0.05, "unit": "µM"},
      {"measurement": "Chemical Stability pH 1.2 (percentage of remaining compound)", "setting": "[14]; 0.1 M HCl, 37 °C", "value": "Chemical Stability ^b pH 1.2 ^c = 100%"},
      {"measurement": "Chemical Stability pH 9.1 (percentage of remaining compound)", "setting": "[14]; 0.1 M NH4HCO3, 37 °C", "value": "Chemical Stability ^b pH 9.1 ^e = 6.0%"},
      {"measurement": "Chemical Stability pH 7.4 (percentage of remaining compound)", "setting": "[14]; PBS, 37 °C", "value": "Chemical Stability ^b pH 7.4 ^d = 5.3%"},
      {"measurement": "CC50", "setting": "[15]", "value": "> 20", "unit": "µM"},
      {"measurement": "Kind of effect on intracellular growth of M. tuberculosis H37Rv", "setting": "[16]", "value": "bacteriostatic effect"},
      {"measurement": "Log10 CFU/well (Mean ± SD)", "setting": "[16]", "value": "3.90 ± 0.30 ^d Log10 CFU/well and 4.10 ± 0.02 ^d Log10 CFU/well"},
      {"measurement": "Reduction of Mtb load compared to the untreated group", "setting": "[16]; 1 μM", "value": 1.27, "unit": "log10 CFU"},
      {"measurement": "Reduction of Mtb load compared to the untreated group", "setting": "[16]; 5 μM", "value": 1.07, "unit": "log10 CFU"},
      {"measurement": "MIC E. coli", "setting": "[17]", "value": "MIC E. coli = > 20 μM"},
      {"measurement": "MIC PT20", "setting": "[18]", "value": "<0.05", "unit": "µM"}
    ]}
  ]
}
